According to ChEMBL document CHEMBL3785079, “Structure-Activity Study of Bioisosteric Trifluoromethyl and Pentafluorosulfanyl Indole Inhibitors of the AAA ATPase p97” (ACS Med Chem Lett, 2015):

molecular target: Transitional endoplasmic reticulum ATPase (Homo sapiens, UniProt P55072); assay: Inhibition of wild type human AAA ATPase p97 expressed in Escherichia coli measured by ADPGlo assay in presence of 100 uM ATP
Sequence (P55072 whole entry): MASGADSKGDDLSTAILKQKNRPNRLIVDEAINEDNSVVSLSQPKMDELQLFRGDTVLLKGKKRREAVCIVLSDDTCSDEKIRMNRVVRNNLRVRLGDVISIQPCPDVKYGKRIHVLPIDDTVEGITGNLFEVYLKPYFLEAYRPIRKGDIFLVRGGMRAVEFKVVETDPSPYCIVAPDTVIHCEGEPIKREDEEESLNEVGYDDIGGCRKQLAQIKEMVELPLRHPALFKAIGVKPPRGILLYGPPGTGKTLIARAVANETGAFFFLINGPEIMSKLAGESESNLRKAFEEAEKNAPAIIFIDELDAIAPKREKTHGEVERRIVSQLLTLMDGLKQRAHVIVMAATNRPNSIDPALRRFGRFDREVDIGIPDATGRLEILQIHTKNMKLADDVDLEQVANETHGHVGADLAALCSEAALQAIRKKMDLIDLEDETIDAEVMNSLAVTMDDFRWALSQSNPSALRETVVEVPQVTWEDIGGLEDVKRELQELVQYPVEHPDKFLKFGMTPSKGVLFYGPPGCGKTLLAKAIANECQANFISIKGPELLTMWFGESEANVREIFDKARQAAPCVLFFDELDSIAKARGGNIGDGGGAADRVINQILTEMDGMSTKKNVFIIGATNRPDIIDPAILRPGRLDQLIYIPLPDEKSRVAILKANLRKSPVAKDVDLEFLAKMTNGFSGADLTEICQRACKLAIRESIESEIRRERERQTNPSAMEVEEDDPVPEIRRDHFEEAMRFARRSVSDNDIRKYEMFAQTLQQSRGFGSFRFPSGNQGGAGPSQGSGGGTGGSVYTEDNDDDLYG

SMILES	IC50 [µM]
CC(C)N1CCN(CCNC2CCN(c3cccc(-c4cc5cc(C(F)(F)F)ccc5[nH]4)c3)CC2)CC1	4.7
CC(C)N1CCN(CCNC2CCN(c3cccc(-c4cc5cc([N+](=O)[O-])ccc5[nH]4)c3)CC2)CC1	0.05
Cc1ccc2[nH]c(-c3cccc(N4CCC(NCCN5CCN(C(C)C)CC5)CC4)c3)cc2c1	0.24
COc1ccc2[nH]c(-c3cccc(N4CCC(NCCN5CCN(C(C)C)CC5)CC4)c3)cc2c1	0.71
CC(C)N1CCN(CCNC2CCN(c3cccc(-c4cc5cc(OC(F)(F)F)ccc5[nH]4)c3)CC2)CC1	3.8
CC(C)N1CCN(CCNC2CCN(c3cccc(-c4cc5cc(S(F)(F)(F)(F)F)ccc5[nH]4)c3)CC2)CC1	21.5
